# Results taken from publication PMC3514216, “SRC Homology 2 Domain Binding Sites in Insulin, IGF-1 and FGF receptor mediated signaling networks reveal an extensive potential interactome” (Cell Communication and Signaling : CCS, 2012).
# Numbering of substitutions follows the chain as printed. pKd: −log10 of the molar value.
# Tests used:
# CrkL SH2 domain = CrkL SH2 domain (Homo sapiens, UniProt P46109); experiment: Fluorescence polarization solution binding; conditions: Rhodamine B-labeled peptide, GST-SH2, Beacon 2000, read-out: Affinity (KD)
# Source text: To verify the binding results obtained from addressable peptide arrays we employed an orthogonal method of determining SH2 interactions with peptide ligands. We measured the dissociation constants of 60 binary SH2-peptide pairs in solution by fluorescence polarization (Table 2, Additional file 2: Figures S3A-C).
# Peptides were synthesized using FMOC-chemistry onto pre-loaded tenta-gel resins. Peptides were then labeled with Rhodamine B (Abbey Color) and then cleaved using trifluoroacetic acid. Peptides were lyophilized and then purified using a LC/MS (Agilent 2100). Dissociation constants were measured using the Beacon 2000 (Invitrogen) as previously described.
# Binding Affinities determined by Fluorescence Polarization. Rhodamine B-labeled peptides were mixed with varying concentrations of GST-tagged SH2 domains. Fluorescence polarization measurements were read on a Beacon 2000 (Invitrogen). The curves were fit to a Michaelis-Menten equation to calculate the dissociation constant, KD. […] (C) Affinity measurements that fell below the 2X mean intensity and were considered array negative on the SPOT array.
# Plcγ-C SH2 domain [1] = molecular target: Plcγ-C SH2 domain; design: method as in 2 sources, one per row (each row's own in cited_ref): ref 95-97 = [95]; PMID 9422724; doi:10.1074/jbc.273.2.729; Ottinger EA Botfield MC Shoelson SE Tandem SH2 domains confer high specificity in tyrosine kinase signaling J Biol Chem 1998 273 729 735 9422724 10.1074/jbc.273.2.729 || [96]; PMID 8181064; doi:10.1016/0092-8674(94)90160-0; Pascal SM Singer AU Gish G Yamazaki T Shoelson SE Pawson T Kay LE Forman-Kay JD Nuclear magnetic resonance structure of an SH2 domain of phospholipase C-gamma 1 complexed with a high affinity binding || [97]; PMID 15641795; doi:10.1021/bi048641k; Finerty PJ Jr Mittermaier AK Muhandiram R Kay LE Forman-Kay JD NMR dynamics-derived insights into the binding properties of a peptide interacting with an SH2 domain Biochemistry 2005 44 694 703 156417 ||| ref [98] = [98]; PMID 11526507; doi:10.1038/sj.onc.1204654; Malabarba MG Milia E Faretta M Zamponi R Pelicci PG Di Fiore PP A repertoire library that allows the selection of synthetic SH2s with altered binding specificities Oncogene 2001 20 5186 5194 11526507; conditions: tandem SH2 domains of PLCG1 against tandem phospho-peptide of PDGFRβ Y1009/Y1021; read-out: Affinity (KD); cited from earlier work
# PI3K1_N SH2 domain [2] = molecular target: T1, PI3K1_N SH2 domain (Homo sapiens, UniProt P27986); experiment: SPOT peptide array; type: binding; conditions: GST-SH2 0.25 μM, membrane-bound peptide, 1 mM DTT, LiCor read-out
# Source text: (§1) The use of addressable peptide arrays is a reproducible and semi-quantitative approach that has been extensively validated for studying protein interactions with peptide ligands. To investigate connections between SH2 domain proteins and their putative phosphorylated docking sites on cell surface receptors, we developed addressable arrays consisting of 192 phosphotyrosine peptides. This peptide set was assembled using 71 phosphotyrosine peptide motifs corresponding to all of the cytoplasmic tyrosine residues within the FGF receptors (FGFR1-4), insulin receptor (InsR) and IGF-1 receptor (IGF-1R) (Figure 1A). Activation of these receptors results in the phosphorylation of associated scaffold proteins, and so 75 phosphotyrosine peptides corresponding to a comprehensive list of tyrosine residues within insulin receptor substrates (IRS-1 and IRS-2) and fibroblast receptor substrates (FRS-2 and FRS-3) were included. In addition, 33 phosphotyrosine peptides were incorporated from the downstream signaling proteins PLC-γ1, p130Cas (BCAR1) and p62DOK1. […] These control peptides provide a reference and establish the empirical cut-off for designated binding interactions (Table 1). No discrimination was made against peptides on the basis of reported phosphorylation state in order to examine a diverse and unbiased set of motifs. The resulting set of 192 phosphotyrosine peptides and their corresponding position in the proteins of origin is noted in Additional file 1: Table S1. Addressable arrays were synthesized as membrane-bound 11-mer peptides using the SPOT synthesis technique. While the majority of SH2 domains recognize residues C-terminal to the phosphotyrosine in their cognate peptide ligands, additional contacts between SH2 domains and residues N-terminal to the phosphotyrosine are observed for the SH2 domain of Sh2d1a (SAP) and cannot be ruled out in other cases. Peptides were synthesized with six flanking residues C-terminal to the phosphotyrosine and four residues N-terminal to the phosphotyrosine.
# (§2) SH2 domains were arrayed as GST fusion proteins and detected using anti-GST primary antibodies and near-infrared labeled secondary antibodies. In an effort to present a dataset with minimal false positives, we chose an empirical cutoff based on the array average across all peptide spots to classify interactions (Figure 1A). In cases where the intensity of the signal for an individual SH2-domain binding event exceeded the mean intensity of all the peptides on the membrane by three-fold were scored as “array positives” [22]. Non-binding was judged in cases where the intensity of a spot was less than the mean intensity of all spots on the membrane and these were scored as “array negatives”. Peptides with signal intensities between 1X and 3X mean were scored as “indeterminate” and ascribed as neither array positive binding interactions nor array-negative non-binders. […] This signature may be indicative of promiscuity differences between phosphopeptides or there may be a subset of peptides which interact in a nonspecific fashion with either the GST fusion tag or one of the antibodies used for detection, resulting in false positives. Consistent with our goal of reducing the errors associated with identifying false-positives, we probed three separate arrays with three separate preps of the GST fusion tag alone. Potentially non-specificly interacting peptides (so-called ‘sticky’ peptides) were identified as any that bound to GST with above mean intensity in two out of three separate trials. This approach identifies any peptides which interact with GST or either of the recognition antibodies, a known confounding factor for downstream analysis. This conservative approach allows us to score many significant peptides as ‘binders’ which may have been indeterminate before when incorporating the ‘sticky’ peptides into the array average. […]
# Vav1 SH2 domain = Vav1 SH2 domain (Homo sapiens, UniProt P15498); experiment: SPOT peptide array; type: binding; conditions: GST-SH2 0.25 μM, membrane-bound peptide, 1 mM DTT, LiCor read-out
# Source text: as §1, §2
# Plcγ-N SH2 domain [3] = experiment: SPOT peptide array; type: binding; conditions: GST-SH2 0.25 μM, membrane-bound peptide, 1 mM DTT, LiCor read-out
# Source text: as §1, §2
# Plcγ-C SH2 domain [4] = experiment: SPOT peptide array; type: binding; conditions: GST-SH2 0.25 μM, membrane-bound peptide, 1 mM DTT, LiCor read-out
# Source text: as §1, §2
# Plcγ-N SH2 domain [5] = molecular target: Plcγ-N SH2 domain; design: method as in PMID 9422724; conditions: tandem SH2 domains of PLCG1 against tandem phospho-peptide of PDGFRβ Y1009/Y1021; read-out: Affinity (KD); cited from earlier work
# panel of 50 SH2 domains = experiment: SPOT peptide array probed with each of 50 GST-SH2 domains; type: binding; conditions: SH2 domains with intensity >3X array mean; GST-SH2 0.25 μM, 1 mM DTT
# In short: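 Each GST-fused SH2 domain was overlaid on 192 membrane-synthesized pTyr peptides (11-mers, 4 N-terminal and 6 C-terminal flanking residues) and read with anti-GST and near-infrared secondary antibodies. Binding called relative to membrane mean intensity (>3× positive, <1× negative); GST-only probes defined nonspecific peptides.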
# PI3K1_N SH2 domain [6] = molecular target: T1, PI3K1_N SH2 domain; design: method as in PMID 8384875; conditions: cited from earlier work
# Abl1 SH2 domain = molecular target: T2, Abl1 SH2 domain (Homo sapiens, UniProt P00519); experiment: SPOT peptide array; type: binding; conditions: GST-SH2 0.25 μM, membrane-bound peptide, 1 mM DTT, LiCor read-out
# T2 sequence (P00519 127-217 limits assumed): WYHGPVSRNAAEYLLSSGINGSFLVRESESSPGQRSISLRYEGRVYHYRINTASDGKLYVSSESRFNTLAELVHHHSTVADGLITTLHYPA
# Source text: as §1, §2
# Nck1 SH2 domain = Nck1 SH2 domain (Homo sapiens, UniProt P16333); experiment: SPOT peptide array; type: binding; conditions: GST-SH2 0.25 μM, membrane-bound peptide, 1 mM DTT, LiCor read-out
# Source text: as §1, §2
# Grb2 SH2 domain = Grb2 SH2 domain (Homo sapiens, UniProt P62993); design: method as in earlier work; conditions: SH2 protein microarray; N.B. = non binding; read-out: Protein Microarray (Macbeath) – KD; cited from earlier work
# Abl2 SH2 domain = molecular target: T3, Abl2 SH2 domain (Homo sapiens, UniProt P42684); design: method as in earlier work; conditions: SH2 protein microarray; N.B. = non binding; read-out: Protein Microarray (Macbeath) – KD; cited from earlier work
# T3 sequence (P42684 173-263 limits assumed): T2 sequence (P00519 127-217 limits assumed) with N9S, G18L, R35L, A53T, S54A, L58V, S61T, S62A, N67S, I84V
# Shc1 SH2 domain = molecular target: T4, Shc1 SH2 domain (Homo sapiens, UniProt P29353); design: method as in PMID 7544002; conditions: read-out: Affinity (KD); cited from earlier work
# T4 sequence (P29353 488-579 limits assumed): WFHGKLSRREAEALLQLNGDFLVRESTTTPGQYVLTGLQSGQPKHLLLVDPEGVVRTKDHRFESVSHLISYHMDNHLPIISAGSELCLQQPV
# T1 sequence (P27986 333-428 limits assumed): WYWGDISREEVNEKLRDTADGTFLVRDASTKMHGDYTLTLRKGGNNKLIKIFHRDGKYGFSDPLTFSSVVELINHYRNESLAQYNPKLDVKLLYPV
# Chain of CrkL SH2 domain (P46109 14-102 limits assumed): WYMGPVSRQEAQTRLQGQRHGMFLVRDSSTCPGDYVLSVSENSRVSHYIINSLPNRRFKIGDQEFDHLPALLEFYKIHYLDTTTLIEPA
# Chain of Grb2 SH2 domain (P62993 60-152 limits assumed): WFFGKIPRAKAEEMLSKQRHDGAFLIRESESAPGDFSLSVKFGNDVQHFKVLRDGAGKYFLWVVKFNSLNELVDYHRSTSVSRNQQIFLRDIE
# Chain of Vav1 SH2 domain (P15498 671-765 limits assumed): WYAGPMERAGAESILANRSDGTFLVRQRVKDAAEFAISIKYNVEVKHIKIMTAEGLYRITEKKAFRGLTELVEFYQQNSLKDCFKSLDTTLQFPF
compound,measurement,setting,value
CC(C)C[C@H](NC(=O)[C@H](CCC(=O)O)NC(=O)[C@H](Cc1ccc(OP(=O)(O)O)cc1)NC(=O)[C@H](CCC(=O)O)NC(=O)[C@H](CO)NC(=O)[C@@H](NC(=O)CN)C(C)C)C(=O)N1CCC[C@H]1C(=O)N[C@@H](CCC(=O)O)C(=O)N[C@@H](CC(=O)O)C(=O)N1CCC[C@H]1C(=O)O [GVSEpYELPEDP],pKd,CrkL SH2 domain,< 4.30
"ADNDpYIIPLPD [11-mer phosphotyrosine control peptide, PDGFRb (Y1021), reference compound]",pKd,Plcγ-C SH2 domain [1],8.66 to 9.19
same,Array positive,PI3K1_N SH2 domain [2],No (Peptide spots with average intensity values between 1X-3X the array mean were defined as ‘indeterminate’. Those with intensities below 1X mean were defined as array negative)
same,Array positive,Vav1 SH2 domain,Yes (Array-positive binding was ascribed to interactions with intensities greater than three times the array mean)
same,Array positive,Plcγ-N SH2 domain [3],Yes (Array-positive binding was ascribed to interactions with intensities greater than three times the array mean)
same,Array positive,Plcγ-C SH2 domain [4],Yes (Array-positive binding was ascribed to interactions with intensities greater than three times the array mean)
same,pKd,Plcγ-N SH2 domain [5],8.66 to 9.19
same,Other SH2 domains bound (additional array-positive SH2 domains),panel of 50 SH2 domains,Brk
same,Relative affinity (ID50),PI3K1_N SH2 domain [6],45000 nM
"EDPIpYDEPEGL [11-mer phosphotyrosine peptide, p62DOK1 (Y362)]",Array positive,Abl1 SH2 domain,Yes (Array-positive binding was ascribed to interactions with intensities greater than three times the array mean)
same,Array positive,Nck1 SH2 domain,Yes (Array-positive binding was ascribed to interactions with intensities greater than three times the array mean)
same,Other SH2 domains bound (additional array-positive SH2 domains),panel of 50 SH2 domains,"Blk, Hck, Lck, Lyn, Shc1, Src"
EIFTLGGSPpYPGVPVEED (EIFTLGGSPYPGVPVEED),pKd,Grb2 SH2 domain,6.85
same,pKd,Abl2 SH2 domain,6.40
"HDGLpYQGLSTA (HDGLYQGLSTA) [11-mer phosphotyrosine control peptide, CD150 (Y142)]",pKd,Shc1 SH2 domain,4.30
